Assay results from patent US9404080B2, “Human taste cells capable of continuous proliferation” (B.R.A.I.N. BIOTECHNOLOGY RESEARCH AND INFORMATION NETWORK AG, priority 2012, dated 2016).
Entries after “also recorded” stand apart in the source; their conditions may differ.

Experiments:
BR-HTC38 cells = experiment: Fluo-4 fluorescent calcium imaging assay in TAS2R38-transduced BR-HTC38; type: cell-based, human; settings: BR-HTC38 (TAS2R38 expressed) vs BR-HTC8
Protocol: (§1) Changes in Ca^2+-dependent Fluo-4 fluorescence were recorded on a Molecular Devices fluorescence microplate reader. Measurement was started by addition of increasing concentrations of the taste molecules in KH-buffer to the cells. KH-buffer served as negative control and KH-buffer containing 1 μM ionomycin served as a positive control. […] Calcium signals for each test molecule are depicted as Relative Fluorescence Units (RFU), which means that calcium mobilization in response to taste molecules was calculated dF/F0, with dF is (peak fluorescence F1−baseline fluorescence F0). […] Data were obtained from several independent experiments and performed in triplicates.

[1] = tested on: Non-taste cells including HEK293 cells, Cal33 cells, and non-lingual, proliferating primary cells isolated from the oral cavity; experiment: Fluo-4 fluorescent calcium imaging assay in non-taste control cells; type: cell-based, human
Protocol: Briefly, human taste cells were seeded in 96-well plates and stained with Fluo4-AM. Non-taste cells including HEK293 cells, Cal33 cells, and non-lingual, proliferating primary cells isolated from the oral cavity served as a control. Changes in Ca^2+-dependent Fluo-4 fluorescence were recorded on a Molecular Devices fluorescence microplate reader. Measurement was started by addition of increasing concentrations of the taste molecules. […] Calcium signals for each test molecule are depicted as relative fluorescence units (RFU).
as §1, with “To test, whether stimulation of human taste cells with these taste molecules leads to changes in intracellular calcium the Fluo-4 fluorescent calcium imaging assay was performed as described above. Non-taste cells including HEK293 cells and non-lingual, proliferating primary cells isolated from the oral cavity served as a control and were treated equally throughout the procedure. Changes” for “Changes”, “Devices Fluorescence” for “Devices fluorescence”

[2] = tested on: human taste cells BR-HTC8; experiment: Fluo-4 fluorescent calcium imaging assay in BR-HTC8; type: cell-based; as to Fluo-4 assay BR-HTC8: key: + indicates that the analysis was successful and that the mRNA was detected by RT-PCR or that stimulation of human taste cells with the respective taste molecule resulted in a dose-dependent increase in intracellular calcium or decrease in cellular membrane potential
Protocol: Before the assay, cells are maintained in HTC medium for at least 48 hours as described in Example 1. Cells are then trypsinized with accutase (e.g. PAA, L11-007) or TrypLE (e.g. Gibco, 12563) and seeded into poly-D-lysine coated 96-well assay plates (e.g. Corning) at a density of 15,000 cells/well in 100 μl HTC medium.
After 24 hours, the cells (still in 100 μl medium) are stained by addition of 100 μl of Fluo-4 staining solution, which consists of KH buffer (10 mM HEPES pH7.4 containing 118 mM NaCl, 4.7 mM KCl, 4.2 mM NaHCO3, 1.2 mM KH2PO4, 1.2 mM MgSO4, 1.3 mM CaCl2) containing 4 μM Fluo-4 (Molecular Probes) and incubation for 1 hour at 37° C. Final Fluo-4 concentration in the staining solution/medium mixture is 2 μM. Staining solution is then replaced by 80 μl KH-buffer per well and plates are transferred into a fluorescence microplate reader to monitor changes in Ca^2+-dependent fluorescence (excitation 488 nm, emission 530 nm) after the addition of 20 μl KH-buffer supplemented with the test molecule under investigation. The test molecule was added 16 seconds after starting the scan and baseline recording, mixed twice, and then recording continued for additional 44 seconds. Data points of a total of 18 reads were collected. Data analysis/Data recording—Calcium mobilization was measured as the change of peak fluorescence (ΔF) over the baseline level (F). Data were expressed as the mean S.E. of the ΔF/F value of replicated independent samples. Data analysis was done with software provided by the manufacturer of the microplate reader (e.g. Molecular Devices).
as §1, with “To test, whether stimulation of human taste cells with these taste molecules leads to changes in intracellular calcium the Fluo-4 fluorescent calcium imaging assay was performed as described above. Non-taste cells including HEK293 cells and non-lingual, proliferating primary cells isolated from the oral cavity served as a control and were treated equally throughout the procedure. Changes” for “Changes”, “Devices Fluorescence” for “Devices fluorescence”
In order to perform to the Fluo-4 fluorescent calcium imaging experiment in the absence of extracellular Ca^2+ the procedure was conducted as described above, however, the KH-buffer was prepared without addition of Ca^2+. Measurement was started by addition of increasing concentrations of the taste molecules in KH-buffer without Ca^2+ to the cells. KH-buffer without Ca^2+ served as negative control and KH-buffer without Ca^2+ containing 1 μM ionomycin served as a positive control.
To test, whether stimulation of human taste cells with oxytocin leads to changes in intracellular calcium the Fluo-4 fluorescent calcium imaging assay was performed as described above in Example 5. Briefly, the human taste cells were seeded in 96-well plates and stained with 2 μM of the calcium-sensitive fluorescence dye Fluo4 in HTC/KH buffer medium for one hour at 37° C. with subsequent replacement of the staining solution with KH-buffer. Non-taste cells including HEK293 cells and non-lingual, proliferating primary cells isolated from the oral cavity served as a control and were treated equally throughout the procedure. Changes in Ca^2+-dependent Fluo-4 fluorescence were recorded on a Molecular Devices Fluorescence microplate reader.

[3] = tested on: human taste cells BR-HTC8; experiment: FLIPR fluorescent membrane potential (FMP) imaging assay in BR-HTC8; type: cell-based; settings: BR-HTC8, increasing concentrations in KH-buffer
Protocol: This cell depolarization was measured by using voltage-sensitive dyes including FLIPR fluorescent membrane potential (FMP) dye (Molecular Devices R8123). Before the assay, cells were maintained in HTC medium for at least 48 hours as described above in Example 1. Cells were then trypsinized with accutase (e.g. PAA, L11-007) or TrypLE (e.g. Gibco, 12563) and seeded into poly-D-lysine coated 96-well assay plates (Corning) at a density of 15,000 cells/well in […].
After 24 hours, medium was removed and the cells are washed once with 100 μl KH buffer (10 mM HEPES pH7.4 containing 118 mM NaCl, 4.7 mM KCl, 4.2 mM NaHCO3, 1.2 mM KH2PO4, 1.2 mM MgSO4, 1.3 mM CaCl2) and then stained with 200 μl KH buffer containing FLIPR FMP dye according instructions of the manufacturer […] and incubation for 2 hours at 37° C. The plates were then transferred into a fluorescence microplate reader to monitor changes in membrane potential-dependent fluorescence (excitation 530 nm, emission 565 nm) after the addition of 50 μl KH-buffer supplemented with the test molecule under investigation. The test molecule was added 16 seconds after starting the scan and baseline recording, mixed twice, and then recording continued for additional 74 seconds. Data points of a total of 35 reads were collected.
Data analysis/Data recording—Changes of the membrane potential was measured as the change of peak fluorescence (ΔF) over the baseline level (F). Data were expressed as the mean S.E. of the ΔF/F value of replicated independent samples. Data analysis was done with software provided by the manufacturer of the microplate reader (Molecular Devices).
(§2) To test, whether stimulation of human taste cells with taste molecules leads to changes in cellular membrane potential the FLIPR fluorescent membrane potential assay was performed as described above. Non-taste cells including HEK293 cells and non-lingual, proliferating primary cells isolated from the oral cavity served as a control and were treated equally throughout the procedure. Changes in membrane potential were recorded on a Molecular Devices Fluorescence microplate reader. Measurement was started by addition of increasing concentrations of the taste molecules in KH-buffer to the cells. KH-buffer served as negative control and KH-buffer containing 4 μM FCCP (e.g. Sigma, C2920) served as a positive control. […] Data were obtained from several independent experiments and performed in triplicates.
as §2, with “This cell depolarization can be measured by using voltage-sensitive dyes including FLIPR fluorescent membrane potential (FMP) dye (Molecular Devices R8123) as described above in Example 6. To” for “To”, “oxytocin” for “taste molecules”, “oxytocin” for “the taste molecules”

## OCc1ccccc1O[C@@H]1O[C@H](CO)[C@@H](O)[C@H](O)[C@H]1O [Salicin]
BR-HTC38 cells
  dose-dependent Fluo-4 calcium response in BR-HTC38 compared with parental BR-HTC8: enhanced
[1]
  increase of Fluo4-fluorescence in control cells: not in control cells
[2]; BR-HTC8, increasing concentrations in KH-buffer with Ca2+
  change of Fluo4-fluorescence / intracellular calcium on addition of the test molecule: dose-dependent increase of Fluo4-fluorescence
[2]; KH-buffer without Ca2+, BR-HTC8, molecule alone
  Fluo-4 calcium response in the absence of extracellular Ca2+: increase of intracellular calcium; also recorded: dose-dependent increase of Fluo4-fluorescence
[2]; dose-dependent increase in intracellular calcium on stimulation with the cognate bitter molecule of the TAS2R named in the row
  Fluo-4 assay BR-HTC8: +
[3]
  change of cellular membrane potential (FLIPR FMP dye fluorescence) on addition of the test molecule: did not elicit significant changes in cellular membrane potential
